Where a name gives a salt, the structure may show the parent alone. One block for each compound: values may come before it.
Experiments:
[1] = tested on: T. mentagrophytes, (ATCC 24953); assay: Modified NCCLS M38-A broth microdilution MIC assay; format: cell-based, Trichophyton mentagrophytes
From the text: The broth microdilution method was a modification of a NCCLS M38-A standard method for the susceptibility testing of conidium-forming filamentous fungi of the National Committee for Clinical Laboratory Standards (NCCLS). The modified method was developed at the Center for Medical Mycology, University Hospitals of Cleveland, Cleveland, Ohio, based on the method described in Jessup, et al., “Antifungal Susceptibility Testing of Dermatophytes: Establishing a Medium for Inducing Conidial Growth and Evaluation of Susceptibility of Clinical Isolates,” Journal of Clinical Microbiology, 38, 341-344, published by the American Society for Microbiology (2000), the disclosures of which are incorporated herein by reference. Based on a multicenter study of the reproducibility of the modified method for testing dermatophytes, adoption of the modified method as an amendment to the NCCLS M38-A standard has been proposed. […]
Dermatophyte isolates are subcultured onto Potato Dextrose Agar (PDA) and incubated at a temperature of about 30° C. for a period of about 4 to about 5 days or until good conidiation is produced. […] The suspension is allowed to settle for about 5 to about 10 minutes and the conidia is counted using a hemocytometer. […]
MIC assay was determined using the broth dilution procedure described in Example 8 performed in microtiter wells with RPMI 1604 as the diluent. […]

[2] = tested on: T. mentagrophytes, (ATCC 24953); assay: Agar diffusion plate assay, zone of inhibition (Example 9); format: cell-based, Trichophyton mentagrophytes; conditions: undiluted composition
From the text: For the agar diffusion assay, the standardized inoculum of conidia is applied to the surface of a Potato Dextrose Agar plate and allowed to dry. Wells are then cut into the agar and the test composition is put into the wells and allowed to diffuse and antifungal activity is evidenced by zones of growth inhibition (i.e., area remaining clear, lacking growth) on the surface of the plates measured in millimeters (mm) diameter.
The fungicidal activity of terbinafine hydrochloride against the dermatophytic fungi, T. mentagrophytes, (ATCC 24953), is illustrated in the modified NCCLS broth dilution assay described in Example 8, based on minimum inhibitory concentration (MIC) and minimum fungicidal concentration (MFC) as well as an agar diffusion plate assay measuring the zones of inhibition.
MIC assay was determined using the broth dilution procedure described in Example 8 performed in microtiter wells with RPMI 1604 as the diluent. Serial dilutions of each test composition were made in RPMI diluent, and then 100 μl of undiluted test composition and of each diluted composition was added to a respective microtiter well. Conidial suspension (100 μl) was then added to each well and the plates were incubated at an incubation temperature of about 35° C. for an incubation period of 4 days dermatophytes, and 48 hours for yeasts. […], undiluted test composition was added to wells cut into the agar and allowed to diffuse. The MIC endpoint was the lowest concentration that inhibited 80% of fungal growth as compared to the growth control. The MFC endpoint was the lowest concentration to produce 1-2 colonies. The zone of inhibition size was measured (diameter of area remaining clear, i.e., lacking growth).

[3] = tested on: T. mentagrophytes, (ATCC 24953); assay: MFC assay by subculturing the microtiter wells from the MIC test; format: cell-based, Trichophyton mentagrophytes
Protocol: Dermatophyte isolates are subcultured onto Potato Dextrose Agar (PDA) and incubated at a temperature of about 30° C. for a period of about 4 to about 5 days or until good conidiation is produced. T rubrum isolates are subcultured onto cereal (oatmeal) agar instead of PDA in order to induce conidia production. A suspension of conidia in sterile saline is made by gently swabbing the colony surface with a sterile swab. The suspension is allowed to settle for about 5 to about 10 minutes and the conidia is counted using a hemocytometer. Working suspensions of conidia are prepared in 10 ml RPMI 1604 (Difco Laboratories) medium to a final concentration of 1 to 3×10^3 CFU/ml. Yeast controls are subcultured onto PDA and incubated at a temperature of about 35° C. for about 48 hours. Yeast inocula are prepared to a final concentration of 0.5 to 2.5×10^3 CFU/ml. For MIC assay, each drug concentration well and growth control well is inoculated with 100 microliters of cell suspension, and the final volume in each microtiter well is 200 microliters. The dermatophyte plates are incubated at a temperature of about 35° C. for 4 days (yeast controls for 48 hours). […]
MIC assay was determined using the broth dilution procedure described in Example 8 performed in microtiter wells with RPMI 1604 as the diluent. […] The zone of inhibition size was measured (diameter of area remaining clear, i.e., lacking growth).

[4] = Release/retention of terbinafine hydrochloride from treated human nail clippings in ethyl alcohol; format: in vitro ADME; conditions: FIG. 2
Protocol: The terbinafine-treated nail clippings were then separately recovered from each test solution and rinsed with 10 mL of ethyl alcohol to remove antifungal liquid from the surface cavity. The rinsed nail clippings from each test were then separately immersed in another 5 mL portion of anhydrous ethyl alcohol to assess the rate of terbinafine release from the nail structure, by determining the concentration of terbinafine hydrochloride released as a function of time using the HPLC technique described above.

[5] = In vitro diffusion of terbinafine across a nail membrane (human nail clippings); format: in vitro ADME; conditions: applied as a 10% solution in ethanol

efficacy as judged from MIC assays ([1]; in words): at most some weak efficacy
Structure (SMILES): CCCCCCCCCCCCOC(=O)C(C)N(C)C.Cl (stereo not drawn) [9(E), dodecyl-2-(N,N-dimethylamino) isopropionate hydrochloride]
Zone size (mm) [2]: Zero

Structure (SMILES): CN(C/C=C/C#CC(C)(C)C)Cc1cccc2ccccc12 [9(F), terbinafine hydrochloride]
Zone size (mm) ([2]; hydrochloride): 80 mm

Structure (SMILES): CN(C/C=C/C#CC(C)(C)C)Cc1cccc2ccccc12 [9(G), terbinafine hydrochloride]
MFC ([3]; Trichophyton mentagrophytes, ATCC24953, lowest concentration to produce 1-2 colonies): 0.125 µg/mL
fungicidal efficacy as judged from MFC assays ([3]; in words): substantially equivalent
MIC ([1]; Trichophyton mentagrophytes, ATCC24953, 96 h, 80% growth inhibition, 35° C., 4 days): 0.03 µg/mL
Zone size (mm) ([2]; hydrochloride): 18 mm

Structure (SMILES): CN(C/C=C/C#CC(C)(C)C)Cc1cccc2ccccc12 [terbinafine hydrochloride]
period for amount of terbinafine hydrochloride retained in the nail to reach equilibrium [4]: about 10 hours

Structure (SMILES): CN(C/C=C/C#CC(C)(C)C)Cc1cccc2ccccc12 [terbinafine, (E)-N-(6,6-dimethyl-2-hepten-4-ynyl)-N-methyl-1-naphthalene methanamine]
period to reach a concentration above the minimum inhibition concentration (MIC) for fungi across nail membrane [5]: about one
